# From patent US10076540B1, “Medication enhancement using hydrogen” (Perricone Hydrogen Water Company, LLC, priority 2017, dated 2018)
# Assay: Time until the effects of THC are felt after ingestion of a hydrogen-containing composition (uptake rate)
# Format: in vivo
# Details: human subject; drunk composition of liquid such as water, dissolved hydrogen and THC
# Text: In some embodiments, the composition comprising hydrogen and an active pharmaceutical agent may have an uptake rate that is at least 2, at least 3, at least 5, at least 10, at least 20, at least 30, or at least 50 times the uptake rate of the active pharmaceutical agent alone by a subject. In certain embodiments, composition comprising hydrogen and an active pharmaceutical agent may have an uptake rate that is less than or equal to 100, less than or equal to 50, less than or equal to 30, less than or equal to 20, less than or equal to 10, less than or equal to 5, or less than or equal to 3 times the uptake rate of the active pharmaceutical agent alone by the subject. Combinations of the above-referenced ranges are also possible (e.g., at least 2 or less than or equal to 100 times). Other ranges are also possible. The uptake rate of a composition (or active pharmaceutical agent) may be determined by administering the composition (or active pharmaceutical agent) to a subject and determining the amount of time required to observe a pharmacological effect (e.g., a psychotropic effect, a reduction in disease and/or clinical symptom) of the active pharmaceutical agent on the subject.
# A composition such as described herein is provided to a subject, such as a human subject. […]
structure (smiles),measurement,value
"CCCCCc1cc(O)c2c(c1)OC(C)(C)[C@@H]1CCC(C)=C[C@@H]21 [THC, tetrahydrocannabinol]",time after ingestion until the effects of the THC are felt by the subject,less than 5 minutes
